Data taken from ChEMBL document CHEMBL1201862, “PubChem BioAssay data set” (2004).
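Values below derive from 48-hour exposures of cells grown in 96-well plates, with endpoints linearly interpolated between the two concentrations bracketing the appropriate inhibition level. GI50 = concentration required for 50% inhibition of growth.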 Active and inactive are the calls of the source. Cut-off read from the data, not from the text of the source: active = GI50 up to about 1.1 µM and inactive = higher.

Assays:
Assay in all cases: NCI anticancer screen, dose series, 48 h
[1] = system: SW-620
[2] = system: NCI-H460
[3] = system: OVCAR-8
[4] = system: CAKI-1
[5] = system: SK-OV-3
[6] = system: RXF 393
[7] = system: DU-145
[8] = system: OVCAR-3
[9] = system: HCC 2998
[10] = system: MDA-N
[11] = system: MDA-MB-231
[12] = system: 786-0
[13] = system: HOP-62
[14] = system: ACHN
[15] = system: SN12C
[16] = system: A549
[17] = system: UO-31
[18] = system: MCF7
[19] = system: Malme-3M
[20] = system: SR

Row | Compound | GI50 [1] | GI50 [2] | GI50 [3] | GI50 [4] | GI50 [5] | GI50 [6] | GI50 [7] | GI50 [8] | GI50 [9] | GI50 [10] | GI50 [11] | GI50 [12] | GI50 [13] | GI50 [14] | GI50 [15] | GI50 [16] | GI50 [17] | GI50 [18] | GI50 [19] | GI50 [20]
1 | Nc1nc(N)c2nn(-c3ccc(C(=O)O)cc3)nc2n1 | > 100 µM (inactive) | > 100 µM (inactive) | > 100 µM (inactive) | > 100 µM (inactive) | > 100 µM (inactive) | > 100 µM (inactive) | > 100 µM (inactive) | > 100 µM (inactive) | > 100 µM (inactive) | > 100 µM (inactive) | > 100 µM (inactive) | > 100 µM (inactive) | > 100 µM (inactive) | > 100 µM (inactive) | > 100 µM (inactive) | > 100 µM (inactive) | > 100 µM (inactive) | > 100 µM (inactive) | – | –
2 | CN(C)c1ccc(C=c2c3ccccc3n3c2cc(-c2ccc(Cl)cc2)[n+]3C)cc1 | 0.242 µM (active) | 0.263 µM (active) | 0.147 µM (active) | 0.259 µM (active) | 0.331 µM (active) | 0.822 µM (active) | 0.177 µM (active) | 0.295 µM (active) | 0.603 µM (active) | 0.327 µM (active) | 0.217 µM (active) | 0.267 µM (active) | 0.406 µM (active) | 0.514 µM (active) | 0.254 µM (active) | 0.238 µM (active) | 0.904 µM (active) | 0.0953 µM (active) | 0.333 µM (active) | –
3 | CN(CC(=O)O)c1ncc2c(n1)C=CCC2 | > 100 µM (inactive) | > 100 µM (inactive) | > 100 µM (inactive) | > 100 µM (inactive) | > 100 µM (inactive) | > 100 µM (inactive) | > 100 µM (inactive) | > 100 µM (inactive) | – | > 100 µM (inactive) | > 100 µM (inactive) | > 100 µM (inactive) | > 100 µM (inactive) | > 100 µM (inactive) | > 100 µM (inactive) | > 100 µM (inactive) | > 100 µM (inactive) | > 100 µM (inactive) | > 100 µM (inactive) | > 100 µM (inactive)
4 | O=C1COC(c2ccccc2O)=NN1CCCN1CCCC1 | > 100 µM (inactive) | > 100 µM (inactive) | > 100 µM (inactive) | > 100 µM (inactive) | > 100 µM (inactive) | > 100 µM (inactive) | > 100 µM (inactive) | > 100 µM (inactive) | – | > 100 µM (inactive) | > 100 µM (inactive) | > 100 µM (inactive) | > 100 µM (inactive) | > 100 µM (inactive) | > 100 µM (inactive) | > 100 µM (inactive) | > 100 µM (inactive) | > 100 µM (inactive) | > 100 µM (inactive) | 60.3 µM (inactive)
5 | CC(=O)/C(=C/NC(=S)c1ccncc1)C(=O)Nc1ccccc1C | > 100 µM (inactive) | > 100 µM (inactive) | > 100 µM (inactive) | > 100 µM (inactive) | > 100 µM (inactive) | > 100 µM (inactive) | > 100 µM (inactive) | > 100 µM (inactive) | > 100 µM (inactive) | > 100 µM (inactive) | > 100 µM (inactive) | > 100 µM (inactive) | > 100 µM (inactive) | > 100 µM (inactive) | > 100 µM (inactive) | > 100 µM (inactive) | > 100 µM (inactive) | > 100 µM (inactive) | – | –
6 | CC(C)(O)C1CC(=O)C(C)(C2C(O)CC3(C)C4CC=C5C(CCC(O)C5(C)C)C4(C)C(=O)CC23C)O1 (stereo not given) | > 100 µM (inactive) | > 100 µM (inactive) | > 100 µM (inactive) | > 100 µM (inactive) | > 100 µM (inactive) | > 100 µM (inactive) | > 100 µM (inactive) | > 100 µM (inactive) | > 100 µM (inactive) | > 100 µM (inactive) | > 100 µM (inactive) | > 100 µM (inactive) | > 100 µM (inactive) | > 100 µM (inactive) | > 100 µM (inactive) | > 100 µM (inactive) | > 100 µM (inactive) | > 100 µM (inactive) | – | –
7 | O=c1oc2ccccc2c2c(=O)c3ccc(OC/C(=N/O)c4ccc(Cl)cc4)cc3oc12 | 12.8 µM (inactive) | 11.9 µM (inactive) | 24 µM (inactive) | 10.6 µM (inactive) | 11.7 µM (inactive) | 2.16 µM (inactive) | 18.6 µM (inactive) | 3.62 µM (inactive) | – | 3.57 µM (inactive) | 20.8 µM (inactive) | 11.4 µM (inactive) | 15.1 µM (inactive) | 5.85 µM (inactive) | 19.9 µM (inactive) | 13.2 µM (inactive) | 14.3 µM (inactive) | 5.83 µM (inactive) | – | 2.88 µM (inactive)
8 | O=[N+]([O-])c1cccc2nc3ccccc3c(NCCCCNc3c4ccccc4nc4cccc([N+](=O)[O-])c34)c12 | < 0.0122 µM (active) | 0.0143 µM (active) | < 0.01 µM (active) | 0.0261 µM (active) | 0.293 µM (active) | 0.0188 µM (active) | 0.0232 µM (active) | 0.0395 µM (active) | 0.0254 µM (active) | 0.0536 µM (active) | 0.0178 µM (active) | 0.0164 µM (active) | 0.042 µM (active) | 0.017 µM (active) | 0.0414 µM (active) | 0.0347 µM (active) | 0.129 µM (active) | 0.0216 µM (active) | 0.0766 µM (active) | –
9 | CC(=O)C1=C(C)N2C(=NC3=C(CCc4ccccc43)C2c2cccc(Br)c2)S1 (stereo not given) | > 100 µM (inactive) | – | > 100 µM (inactive) | – | > 100 µM (inactive) | > 100 µM (inactive) | > 100 µM (inactive) | 93.1 µM (inactive) | 72.9 µM (inactive) | > 100 µM (inactive) | > 100 µM (inactive) | > 100 µM (inactive) | > 100 µM (inactive) | > 100 µM (inactive) | > 100 µM (inactive) | > 100 µM (inactive) | > 100 µM (inactive) | > 100 µM (inactive) | – | –
10 | CCN(CC)CCCNc1nc(=O)[nH]c(C)c1C(=O)Nc1ccc2c(c1)c1ccccc1n2CC | > 100 µM (inactive) | – | > 100 µM (inactive) | > 100 µM (inactive) | > 100 µM (inactive) | > 100 µM (inactive) | > 100 µM (inactive) | > 100 µM (inactive) | > 100 µM (inactive) | > 100 µM (inactive) | > 100 µM (inactive) | > 100 µM (inactive) | > 100 µM (inactive) | > 100 µM (inactive) | > 100 µM (inactive) | > 100 µM (inactive) | > 100 µM (inactive) | > 100 µM (inactive) | > 100 µM (inactive) | –
11 | c1cc2c3c(c1)[C@@H]1O[C@@H]1c1cccc(c1-3)[C@@H]1O[C@H]21 | – | – | 17.9 µM (inactive) | 14.8 µM (inactive) | > 100 µM (inactive) | 2.93 µM (inactive) | 18 µM (inactive) | – | – | 17.9 µM (inactive) | 19.1 µM (inactive) | 20 µM (inactive) | 27.7 µM (inactive) | 18.7 µM (inactive) | 19.7 µM (inactive) | 31.6 µM (inactive) | 14.6 µM (inactive) | 10.1 µM (inactive) | 15.4 µM (inactive) | 49.5 µM (inactive)
12 | O=C1C(NS(=O)(=O)c2ccccc2)=C(n2ccnc2)C(=O)c2ccccc21 | > 100 µM (inactive) | > 100 µM (inactive) | > 100 µM (inactive) | > 100 µM (inactive) | > 100 µM (inactive) | > 100 µM (inactive) | > 100 µM (inactive) | > 100 µM (inactive) | – | > 100 µM (inactive) | > 100 µM (inactive) | > 100 µM (inactive) | > 100 µM (inactive) | > 100 µM (inactive) | > 100 µM (inactive) | > 100 µM (inactive) | > 100 µM (inactive) | > 100 µM (inactive) | 96.4 µM (inactive) | > 100 µM (inactive)
13 | CC(=O)OCC1OC(Oc2cc(C)c(O)cc2C/C=C(\C)CC/C=C(\C)CC(=O)CC(C)C)C(O)C(OC(C)=O)C1OC(C)=O (stereo not given) | 11 µM (inactive) | 13.7 µM (inactive) | 16.9 µM (inactive) | 30.3 µM (inactive) | 26.2 µM (inactive) | 9.77 µM (inactive) | 23.3 µM (inactive) | 8.81 µM (inactive) | 10.7 µM (inactive) | 18 µM (inactive) | 11.2 µM (inactive) | 21 µM (inactive) | 11.4 µM (inactive) | 14.2 µM (inactive) | 15.2 µM (inactive) | 7.8 µM (inactive) | 3.28 µM (inactive) | 12.8 µM (inactive) | > 50 µM (inactive) | –
14 | CC(C)C(C=O)C(O)(C(F)(F)F)C(F)(F)F (stereo not given) | > 100 µM (inactive) | > 100 µM (inactive) | > 100 µM (inactive) | > 100 µM (inactive) | > 100 µM (inactive) | > 100 µM (inactive) | > 100 µM (inactive) | > 100 µM (inactive) | > 100 µM (inactive) | > 100 µM (inactive) | > 100 µM (inactive) | > 100 µM (inactive) | – | > 100 µM (inactive) | – | > 100 µM (inactive) | > 100 µM (inactive) | > 100 µM (inactive) | > 100 µM (inactive) | > 100 µM (inactive)
15 | Cn1c2c(c3ccccc3c1=O)C(=O)c1ccccc1-2 | > 100 µM (inactive) | – | 32.9 µM (inactive) | > 100 µM (inactive) | 81.7 µM (inactive) | – | > 100 µM (inactive) | 76.4 µM (inactive) | – | > 100 µM (inactive) | 43.4 µM (inactive) | 17.9 µM (inactive) | 18.9 µM (inactive) | – | 80.2 µM (inactive) | > 100 µM (inactive) | 21.9 µM (inactive) | 72.9 µM (inactive) | > 100 µM (inactive) | 5.2 µM (inactive)
